The target in one data set is T1, CHK1 (Homo sapiens, UniProt O14757).
T1 sequence (O14757 1-476): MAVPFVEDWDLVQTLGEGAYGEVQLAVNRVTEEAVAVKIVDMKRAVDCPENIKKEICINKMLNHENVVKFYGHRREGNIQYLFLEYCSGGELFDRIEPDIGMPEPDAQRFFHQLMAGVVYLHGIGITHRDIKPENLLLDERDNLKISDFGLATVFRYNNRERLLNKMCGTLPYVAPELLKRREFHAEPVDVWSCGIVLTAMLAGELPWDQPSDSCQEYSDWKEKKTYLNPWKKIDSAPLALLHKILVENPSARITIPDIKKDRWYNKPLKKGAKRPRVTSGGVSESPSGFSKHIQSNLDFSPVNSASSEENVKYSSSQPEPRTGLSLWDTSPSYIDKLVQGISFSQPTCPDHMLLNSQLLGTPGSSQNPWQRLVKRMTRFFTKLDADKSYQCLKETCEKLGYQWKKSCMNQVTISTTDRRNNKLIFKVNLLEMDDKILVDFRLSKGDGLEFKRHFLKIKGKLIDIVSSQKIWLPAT
The data set can be described thus: CHK1 high-throughput screening. Type of data set: biochemical. Conditions: read-out: % inhibition @ 20 μM, Table 4, repeated entries per example.

For a further data set, the target named is T2, FAKcd409 (Homo sapiens, UniProt Q05397, P410T).
T2 construct: comprises residues methionine 409 to glutamate 689; made in house; host or cells: baculovirus vector expression system
In words: FAK HTS assay. It is filed as biochemical. Conditions: 10 uM compound, HTS Delphia assay; 10 µM.

Data set [1] addresses T3, phosphorylated VEGF-R2Δ50 (FLVK-P) (Homo sapiens, UniProt P35968, DEL940-989/E990V).
T3 construct: VEGF-R2Δ50 contains residues 806-939 and 990-1171; made in house; host or cells: baculovirus/insect cells
In words: VEGF-R2 coupled spectrophotometric (FLVK-P) assay. Conditions: Table 2; spectrophotometric assay. It is filed as biochemical. In outline: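 Baculovirus-expressed human VEGF-R2Δ50 (residues 806-939/990-1171, E990V) was autophosphorylated with 3 mM ATP, 40 mM MgCl2 for 2 h at 4° C. ADP formation was coupled via PK/LDH to NADH oxidation, read at 340 nm, with 5.1 mM poly(E4Y1), 1 mM ATP, 25 mM MgCl2, Hepes pH 7.5. Ki came from activity across compound concentrations.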

In another data set the target is T4, FGF-R1 (Homo sapiens, UniProt P11362, C488A/C584S/L457V).
T4 construct: starting from the endogenous methionine residue 456 to glutamate 766; made in house; host or cells: baculovirus vector expression system
In words: FGF-R spectrophotometric assay. It is filed as biochemical. Conditions: Table 2. In outline:
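Kinase domain (Met456–Glu766, baculovirus-expressed) used at 50 nM in a spectrophotometric assay run as for VEGF-R2. Substrates were 2 mM ATP and 15 mM poly(E4Y1).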

Values joined by “and” are separate entries in the source; they are usually repeats but may differ in a detail not shown here. Equal entries are not always repeated.

T3 sequence (P35968 with tags, fused parts or gaps DEL940-989/E990V limits assumed): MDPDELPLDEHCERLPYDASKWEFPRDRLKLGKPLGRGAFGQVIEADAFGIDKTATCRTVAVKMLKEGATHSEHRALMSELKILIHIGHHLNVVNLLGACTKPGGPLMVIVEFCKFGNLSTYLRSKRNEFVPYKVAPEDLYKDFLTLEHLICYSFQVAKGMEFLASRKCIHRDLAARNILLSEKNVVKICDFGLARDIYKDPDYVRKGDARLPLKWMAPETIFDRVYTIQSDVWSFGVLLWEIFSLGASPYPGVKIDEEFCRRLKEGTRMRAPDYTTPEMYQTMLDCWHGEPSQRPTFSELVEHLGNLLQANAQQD
T2 sequence (Q05397 409-689 P410T): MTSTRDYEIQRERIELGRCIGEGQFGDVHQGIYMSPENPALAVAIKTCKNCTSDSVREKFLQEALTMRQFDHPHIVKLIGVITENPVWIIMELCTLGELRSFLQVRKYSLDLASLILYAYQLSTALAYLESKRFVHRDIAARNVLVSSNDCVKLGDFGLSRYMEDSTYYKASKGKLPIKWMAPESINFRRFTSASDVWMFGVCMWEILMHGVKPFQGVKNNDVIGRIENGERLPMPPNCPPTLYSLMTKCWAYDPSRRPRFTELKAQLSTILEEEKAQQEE
T4 sequence (P11362 456-766 L457V/C488A/C584S): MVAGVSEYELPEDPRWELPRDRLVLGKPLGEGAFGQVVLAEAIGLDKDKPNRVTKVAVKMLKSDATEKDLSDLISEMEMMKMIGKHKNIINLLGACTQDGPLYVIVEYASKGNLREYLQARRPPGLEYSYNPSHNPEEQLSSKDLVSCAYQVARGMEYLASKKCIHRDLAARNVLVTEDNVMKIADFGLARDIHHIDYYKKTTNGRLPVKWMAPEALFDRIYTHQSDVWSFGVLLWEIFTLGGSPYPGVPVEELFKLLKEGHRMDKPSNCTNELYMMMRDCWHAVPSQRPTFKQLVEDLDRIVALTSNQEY

Consider `CCCNc1nc(N)c(-c2nc(-c3cccc(O)c3)cs2)s1` [A(29), 3-(4′-Amino-2′-propylamino-[2,5′]bithiazolyl-4-yl)-phenol], for which the inhibition at 20 µM on CHK1 was found to be 7.1%. The “% inhibition of FAK” value on FAKcd409 is −6% and −11% and −8%. In addition, the Ki in data set [1] was found to be 0.078 µM.

`COc1cc(Nc2nc(N)c(-c3nc(-c4cccc(O)c4)no3)s2)cc(OC)c1OC` [K(1), 3-{5-[4-Amino-2-(3,4,5-trimethoxy-phenylamino)-thiazol-5-yl]-[1,2,4]oxadiazol-3-yl}-phenol] had a Ki in data set [1] of 0.006 µM.

`COc1cc(Nc2nc(N)c(-c3nc(-c4cccc(O)c4)cs3)s2)cc(OC)c1OC` [A(17), 3-[4′-Amino-2′-(3,4,5-trimethoxy-phenylamino)-[2,5′]bithiazolyl-4-yl]-phenol] came in with a melting point of 226 to 230 °C. At FGF-R1, this molecule gave a Ki of 2.4 µM. The Ki in data set [1] amounted to 0.003 µM.

The record behind these values is patent US6620828B2, “Thiazole compounds and pharmaceutical compositions for inhibiting protein kinases and methods for their use” (Agouron Pharmaceuticals, Inc., priority 1999, dated 2003).
